{
  "source": "patent US9694010B2",
  "about": "“Therapeutic formulation and methods of treatment” (MacuCLEAR, Inc., priority 2012, dated 2017)",
  "key": {"[1]": {"test_system": "ARPE-19 cells", "conditions": "24 hours; for cell viability (maximum protection): P<0.001", "experimental": "(§1) The human RPE cell line ARPE-19 (ATCC; Manassas, Va.) was cultured in Dulbecco's Modified Essential Medium (DMEM) supplemented with 10% fetal bovine serum, 50 units/mL penicillin-streptomycin and 2.5 mM glutamine at 37° incubation with 5% CO2. The cell line was not transformed and had structure and function properties characteristic of RPE in vivo. The cells were seeded into 96-well plates, and subconfluent cell monolayers were studied within 3 to 10 passages. Before starting the experimental procedures, the medium was removed and replaced with phenol red-free low-glucose DMEM supplemented with 1% calf serum, 0.06% glutamine, and 1% penicillin-streptomycin.\n(§2) The cells were used for experiments when they reached 80% confluence to prevent contact inhibition.\n(§3) After the 24-hour exposure, the MTT reagent solution (5 mg/mL) was added to each well in a ratio of 1:10 MTT reagent:culture medium volume. The cultures were incubated with the MTT reagent for 3 hours at 37° C. At the end of incubation, the MTT solution was removed, and 0.1 mL of dimethyl sulfoxide (DMSO) was added to each well to solubilize the purple formazan product. The proportion of viable cells was determined by measuring the optical density (OD) of each sample at 570 nm (A570) using a SpectraCount plate reader (Packard BioScience, Meridan, Conn.). The relationship between the OD readings in the MTT colorimetric assay and the exact cell number was determined by seeding cells at identical densities and then performing the MTT assay and manual hemocytometer cell counts on parallel replicate cultures. Trypan blue was added to the hemocytometer cultures so that only viable, dye-excluding cells were counted. This approach enabled the establishment of a standard curve for A570 versus cell number.\n(§4) All data were presented as mean±standard error. A nonpaired Student t test was performed to analyze the significance between 2 means at a certain time point. The differences were considered significant at P<0.05. Results for nitric oxide measurements were expressed in μM nitrite and nitrate per 1×10^6 cells."}, "[2]": {"conditions": "all subjects", "quoted_text": "Subjects in the dry AMD group had evidence of small and intermediate drusen, minimal or no pigment abnormalities in the macula (i.e., risk factor 2 on the AREDS Simplified Grading Scale), and a Snellen equivalent best corrected visual acuity (BCVA) equal to or better than 20/100.\nThe patients received 1 drop of test material in one eye and vehicle control in the contra-lateral eye. The patients administered the first dose of each day in the clinical setting and self-administered the remaining two doses of the day at prescribed time points.\nOn days 2 and 3, the evaluations were after the first two time-points. The 7th dose was administered in the morning on day 3. Seven days after the final dose, patients were contacted via telephone to evaluate any post study adverse events or issues."}, "[3]": {"conditions": "25° C., pH 3.5, cationic form; obtained by extrapolation", "description": "In one embodiment, the hydralazine for use in the formulation is a hydralazine salt such as hydralazine hydrochloride."}, "[4]": {"test_system": "rabbit eye", "test": "28-day repeat dose ocular toxicity", "format": "in vivo, Dutch Belted rabbits", "experimental": "Hydralazine hydrochloride ophthalmic solutions were prepared essentially as described in Example 1 at concentrations of 0.0% (vehicle), 0.5% hydralazine hydrochloride, 1.0% hydralazine hydrochloride, and 2.0% hydralazine hydrochloride. The formulation, vehicle or control was administered daily for 28 days to the designated eye of forty Dutch Belted rabbits (5 males and 5 females per group) as shown in Table 2. […]\nA modified Hackett and McDonald microscopic ocular grading system (Hackett 1996) was applied to ocular findings following the use of a slit-lamp biomicroscope, which included insertion of a blue filter to assess for fluorescein dye retention. For any evaluated microscopic ocular examination parameter, there were no statistically significant differences, in either male or female rabbits, between Group 1 and Groups 2-4 during the pre dose or Day 29 study measurement periods.\nMean tonometry (Tono-pen; Reichert Ophthalmic Instruments, Depew, N.Y.) readings of IOP in control and test rabbits pre-dose and on Day 29 were between 15-25 mmHg, which is within the normal physiologic range. […]"}, "[5]": {"experimental": "Choroidal blood flow, velocity and volume were assessed following the first dosing of test material on each day. […] Measurements were made using a Laser Doppler Flowmetry device, which is a state-of-the-art, non-invasive and quantitative approach for visualizing and measuring subfoveal choroidal blood flow.\nThere was a trend of increased mean choroidal blood volume and velocity values in hydralazine hydrochloride-treated eyes, which peaked approximately 2 hours after topical ocular dosing on day 1 and returned to baseline values approximately 4 hours after dosing (i.e., 2 hours later). […] By contrast, in normal/healthy subjects both mean values and associated standard deviations (SDs) remained low at all time points on day 1. • Odds ratio analyses of the choroidal blood flow outcomes between the AMD and Normal groups for day 1 were evaluated."}, "[6]": {"test_system": "ARPE-19 cells", "conditions": "1% O2, 1 μg/mL of hydralazine, P<0.001", "experimental": "In vitro hypoxia treatment was carried out using a ProOx hypoxia system. […] In hypoxia, oxygen concentrations of 1% O2 and 5% CO2 were maintained using a temperature- and humidity-controlled environmental C-chamber by O2 and CO2 controllers (ProOx Model 110 and ProCO2 Model 120; BioSpherix Ltd., Redfield, N.Y.) with N2 and CO2 gas sources. Reactions were stopped by washing out the medium, and 5 mg/mL MTT at a dilution of 1:10 based on the volume of culture medium was added for 3 hours at 37° C. At the end of incubation, the MTT solution was removed, and the cells were dissolved in 0.1 mL/well DMSO. The proportion viable cells were determined by measuring the OD of each sample at 570 nm using a SpectraCount plate reader (Packard BioScience, Meridan, Conn.)."}, "[7]": {"conditions": "cited from earlier work; for systemic bioavailability: gastrointestinal absorption"}, "[8]": {"test_system": "ARPE-19 cells", "conditions": "NaN3 0.1-100 mM, hydralazine 1, 3, 10, 30, 100 μg/mL", "protocol": "RPE cells were washed and replaced with fresh DMEM-F12 medium containing various concentrations of NaN3 (0.1 mM-100 mM). […] Reactions were stopped by washing out the medium."}, "[9]": {"test_system": "Human Umbilical Vein Endothelial Cells (HUVEC)", "test": "In vitro tube formation", "conditions": "100 μg/ml, 48 hours"}, "[10]": {"test_system": "ARPE-19 cells", "test": "tBHP-induced toxicity, MTT assay", "conditions": "24 hours; for cell viability (maximum protection): 100 μg/mL of hydralazine, P<0.001", "experimental": "as §1, §2, §3, §4"}},
  "note": "Where a name gives a salt, the structure may show the parent alone. Read-outs that look alike come from different tables or passages of the source.",
  "data": [
    {"smiles": "OO", "note": "[Formulation H2O2, hydrogen peroxide]", "values": [
      {"measurement": "cell viability", "setting": "[1]; 0.3 mM H2O2 alone", "result": "48.74%±2.40%"},
      {"measurement": "cell viability", "setting": "[1]; 1.0 mM H2O2 alone", "result": "41.28%±0.80%"}
    ]},
    {"smiles": "NNc1nncc2ccccc12", "note": "[hydralazine hydrochloride, Hydralazine hydrochloride]", "values": [
      {"measurement": "average time to resolution of ocular hyperemia", "setting": "[2]; range 1 to 4 days", "result": 1.85, "unit": "days"},
      {"measurement": "ocular hyperemia, treated eyes", "setting": "[2]; hydralazine hydrochloride-treated eyes, 1 vehicle-treated eye", "result": 21, "unit": "eyes"},
      {"measurement": "rate constant (time with less than a 10% loss)", "setting": "[3]", "result": 1.5, "unit": "years"},
      {"measurement": "dose-related toxicologic changes", "setting": "[4]; 28 days of daily topical ocular treatment, 0.5-2.0%, 40 μL", "result": "did not result in the development of significant doserelated toxicologic changes"},
      {"measurement": "ocular histopathology", "setting": "[4]; daily application of up to 2.0% for 28 days", "result": "did not result in the development of ocular pathology, inflammation, degeneration, or histologic evidence of toxicity"},
      {"measurement": "odds ratio, choroidal blood volume outcome, AMD vs Normal group", "setting": "[5]; day 1, 60 minute time point (p=0.337)", "result": 0.22},
      {"measurement": "odds ratio, choroidal blood volume outcome, AMD vs Normal group", "setting": "[5]; day 1, 120 minute time point (p=0.106)", "result": 6.67},
      {"measurement": "time of peak of mean choroidal blood volume and velocity", "setting": "[5]; day 1, after topical ocular dosing, back to baseline approximately 4 hours after dosing", "result": "approximately 2 hours"},
      {"measurement": "choroidal blood flow, mean scores", "setting": "[5]; treated eyes in AMD subjects", "result": "trend towards improved mean scores"}
    ]},
    {"smiles": "NNc1nncc2ccccc12", "note": "[hydralazine]", "values": [
      {"measurement": "cell viability (maximum reversion)", "setting": "[6]; 48 hours", "result": "101.21%±0.54%"},
      {"measurement": "cell viability (maximum reversion)", "setting": "[6]; 72 hours", "result": "103.55%±1.75%"},
      {"measurement": "systemic clearance", "setting": "[7]; exceeds hepatic blood flow", "result": 50, "unit": "mL/min/kg"},
      {"measurement": "systemic bioavailability", "setting": "[7]; fast acetylators", "result": 16, "unit": "%"},
      {"measurement": "systemic bioavailability", "setting": "[7]; slow acetylators", "result": 35, "unit": "%"},
      {"measurement": "plasma half-life", "setting": "[7]; in vivo", "result": "3 to 7", "unit": "h"},
      {"measurement": "time of peak concentration in plasma and maximal hypotensive effect", "setting": "[7]; orally administered", "result": "30 to 120", "unit": "min"},
      {"measurement": "effect on NaN3 chemically-induced hypoxia (viable cells)", "setting": "[8]", "result": "no significant effect"},
      {"measurement": "effect on HUVEC", "setting": "[9]", "result": "caused apoptosis"},
      {"measurement": "cell viability (maximum protection)", "setting": "[1]; insult 0.3 mM H2O2 (second statement), 30 μg/mL of hydralazine", "result": "68.04%±0.67%"},
      {"measurement": "cell viability (maximum protection)", "setting": "[1]; insult 0.3 mM H2O2, 30 μg/mL of hydralazine", "result": "74.30% ±0.80%"},
      {"measurement": "cell viability (maximum protection)", "setting": "[10]; insult 0.01 mM tBHP", "result": "109.99%±2.41%"},
      {"measurement": "cell viability (maximum protection)", "setting": "[10]; insult 0.03 mM tBHP", "result": "100.84%±13.00%"}
    ]},
    {"smiles": "CC(C)(C)OO", "note": "[tBHP, Tert-Butyl hydroperoxide]", "values": [
      {"measurement": "cell viability", "setting": "[10]; 0.01 mM tBHP alone", "result": "89.90%±2.80%"},
      {"measurement": "cell viability", "setting": "[10]; 0.03 mM tBHP alone", "result": "55.80%±4.08%"}
    ]}
  ]
}
